Reference: patent US20240217967A1, “INDOLINE DERIVATIVES AS DDRS INHIBITORS” (CHIESI FARMACEUTICI S.P.A., priority 2021, published 2024)

Legend:
DDR1 [1] = molecular target: T1, DDR1 (Homo sapiens, UniProt Q08345); assay: DDR1 cell based assay (PathHunter U2OS DDR1, collagen II stimulation); settings: U2OS-DDR1 cells, bovine Type II Collagen stimulation
Method: The inhibition of DDR1 receptor activation by compounds was evaluated by PathHunter® U2OS DDR1 assay (Eurofins DiscoverX), according to the manufacturer's instructions. Briefly, U2OS-DDR1 cells were seeded in white 384-well plates at a density of 5000 cells/well and incubated for 2 hours at 37° C. and 5% CO2. Cells were then treated with compounds at different concentrations and incubated for 30 minutes, before stimulation with bovine Type II Collagen 20 μg/ml and incubation overnight at 37° C. and 5% CO2. PathHunter Detection Reagents were prepared according to the protocol provided by DiscoverX and 20 μl/well of this mix were added to each well. After incubating the plates for 1 hour at room temperature in the dark, luminescence signal was acquired with a plate reader. Raw data were normalized to vehicle control (0% for normalization) and positive control (100% for normalization; cells treated with 20 μg/ml collagen II) and IC50 parameters were calculated in GraphPad Prism 8.0 software, using sigmoidal dose-response curve fitting with variable slope.

DDR1 [2] = molecular target: T1, DDR1; assay: DDR1 LanthaScreen Europium Kinase Binding assay; settings: binding affinity; IC50 converted in Ki using Cheng-Prusoff; read-out: Ki DDR1
Method: (§1) DDR1 and DDR2 binding assays were performed using Life Technologies LanthaScreen™ Europium Kinase Binding assay. The compounds were incubated with 5 nM DDR1 (Carna Biosciences) or 5 nM DDR2 (Life Technologies) for 1 hour at room temperature in white 384-well OptiPlate (PerkinElmer), containing 20 nM or 10 nM Kinase Tracer 178 respectively and 2 nM Europium labelled anti-GST antibody (Life Technologies) in assay buffer (50 mM HEPES pH 7.5, 10 mM MgCI2, 1 mM EGTA and 0.01% BRIJ35). The ratio of fluorescence emission 665 nm/615 nm after excitation at 340 nm was obtained using the Tecan Spark 20M plate reader. IC50 values were determined in GraphPad Prism 7.0 software, using 4 parameter model: log(inhibitor) vs. response. IC50 values were converted in Ki using the Cheng-Prusoff equation (Ki=IC50/(1+[Tracer]/Kd).

DDR2 = molecular target: T2, DDR2 (Homo sapiens, UniProt Q16832); assay: DDR2 LanthaScreen Europium Kinase Binding assay; settings: binding affinity; IC50 converted in Ki using Cheng-Prusoff; read-out: Ki DDR2
T2 sequence (Q16832 22-855): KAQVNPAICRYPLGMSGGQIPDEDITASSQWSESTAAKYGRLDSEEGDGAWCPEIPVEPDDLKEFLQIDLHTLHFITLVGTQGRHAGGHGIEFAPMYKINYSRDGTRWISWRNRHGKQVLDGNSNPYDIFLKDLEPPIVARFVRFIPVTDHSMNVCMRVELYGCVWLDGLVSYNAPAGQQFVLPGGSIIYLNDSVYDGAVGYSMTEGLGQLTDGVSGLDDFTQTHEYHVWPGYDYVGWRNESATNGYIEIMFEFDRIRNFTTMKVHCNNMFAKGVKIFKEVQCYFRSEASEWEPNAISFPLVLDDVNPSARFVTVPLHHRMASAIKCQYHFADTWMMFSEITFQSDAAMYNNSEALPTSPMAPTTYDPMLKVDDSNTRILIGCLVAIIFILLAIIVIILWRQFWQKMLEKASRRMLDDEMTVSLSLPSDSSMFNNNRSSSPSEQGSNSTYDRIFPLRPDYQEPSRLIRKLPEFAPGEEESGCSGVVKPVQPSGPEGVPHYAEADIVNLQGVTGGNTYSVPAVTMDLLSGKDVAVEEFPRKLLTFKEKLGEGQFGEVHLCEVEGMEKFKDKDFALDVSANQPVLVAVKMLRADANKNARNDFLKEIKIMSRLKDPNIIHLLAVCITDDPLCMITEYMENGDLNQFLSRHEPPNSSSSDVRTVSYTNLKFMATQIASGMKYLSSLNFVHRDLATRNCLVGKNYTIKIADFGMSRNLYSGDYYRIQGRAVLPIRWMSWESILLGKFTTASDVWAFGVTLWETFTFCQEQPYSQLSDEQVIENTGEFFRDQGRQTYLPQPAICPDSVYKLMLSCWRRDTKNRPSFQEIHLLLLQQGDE
Method: as §1

T1 sequence (Q08345 19-913): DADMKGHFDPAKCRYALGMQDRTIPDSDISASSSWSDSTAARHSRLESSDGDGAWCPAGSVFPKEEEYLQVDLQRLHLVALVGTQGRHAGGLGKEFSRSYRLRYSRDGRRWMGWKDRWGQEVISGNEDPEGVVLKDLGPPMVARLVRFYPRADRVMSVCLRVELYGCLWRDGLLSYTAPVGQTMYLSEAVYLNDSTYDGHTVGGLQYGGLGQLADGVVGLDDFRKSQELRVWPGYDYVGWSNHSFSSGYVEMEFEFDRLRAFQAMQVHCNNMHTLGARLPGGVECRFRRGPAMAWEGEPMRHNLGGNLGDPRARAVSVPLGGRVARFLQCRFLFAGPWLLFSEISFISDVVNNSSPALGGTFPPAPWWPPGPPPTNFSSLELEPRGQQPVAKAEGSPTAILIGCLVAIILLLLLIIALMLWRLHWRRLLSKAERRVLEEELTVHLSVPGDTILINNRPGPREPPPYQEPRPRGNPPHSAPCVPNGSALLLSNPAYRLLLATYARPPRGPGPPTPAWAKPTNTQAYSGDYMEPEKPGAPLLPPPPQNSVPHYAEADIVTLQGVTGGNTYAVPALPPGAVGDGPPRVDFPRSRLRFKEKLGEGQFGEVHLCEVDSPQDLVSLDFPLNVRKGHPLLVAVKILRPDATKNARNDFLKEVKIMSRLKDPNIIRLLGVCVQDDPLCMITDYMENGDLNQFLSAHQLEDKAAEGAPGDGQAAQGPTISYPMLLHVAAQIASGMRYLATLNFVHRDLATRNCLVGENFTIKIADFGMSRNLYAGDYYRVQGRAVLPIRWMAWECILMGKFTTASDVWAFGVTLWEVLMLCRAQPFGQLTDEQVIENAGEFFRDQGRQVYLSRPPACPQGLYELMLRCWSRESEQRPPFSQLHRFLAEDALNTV

Row | SMILES | IC50 (DDR1 [1]) | Ki (DDR1 [2]) | Ki (DDR2)
1 | O=C(Nc1cc(C(F)(F)F)ncn1)c1ccc2c(c1)N(Cc1cnc3cnccn13)CC2 [Example 88] | 50 to 80 nM | < 25 nM | < 25 nM
2 | Cc1cn(-c2cc(NC(=O)c3ccc4c(c3)N(C(=O)c3cnc5cnccn35)CC4)cc(C(F)(F)F)c2)cn1 [Example 13, 1-(imidazo[1,2-a]pyrazine-3-carbony1)-N-(3-(4-methyl-1H-imidazol-1-y1)-5-(trifluoromethyl)phenyl)indoline-6-carboxamide] | 50 to 80 nM | < 25 nM | < 25 nM
3 | Cc1n[nH]c2ncc(CN3CCc4ccc(C(=O)Nc5cc(CN6CC[C@@H](N(C)C)C6)cc(C(F)(F)F)c5)cc43)cc12 [Example 72, (R)-N-(3-((3-(dimethylamino)pyrrolidin-1-yl)methyl)-5-(trifluoromethyl)phenyl)-1-((3-methyl-1H-pyrazolo[3,4-b]pyridin-5-yl)methyl)indoline-6-carboxamide] | < 25 nM | < 25 nM | < 25 nM
4 | Cc1cn(-c2cc(NC(=O)c3ccc4c(c3)N(Cc3cnc5[nH]ncc5c3)CC4C)cc(C(F)(F)F)c2)cn1 (stereo not drawn) [Example 24, 1-((1H-pyrazolo[3,4-b]pyridin-5-yl)methyl)-3-methyl-N-(3-(4-methyl-1H-imidazol-1-yl)-5-(trifluoromethyl)phenyl)indoline-6-carboxamide] | < 25 nM | 25 to 50 nM | 25 to 50 nM
5 | Cc1n[nH]c2ncc(CN3CCc4ccc(C(=O)Nc5cc(C(=O)N6CCN(C)CC6)cc(C(F)(F)F)c5)cc43)cc12 [Example 74, 1-((3-methyl-1H-pyrazolo[3,4-b]pyridin-5-yl)methyl)-N-(3-(4-methylpiperazine-1-carbonyl)-5-(trifluoromethyl)phenyl)indoline-6-carboxamide] | < 25 nM | < 25 nM | < 25 nM
6 | Cc1n[nH]c2ncc(CN3CCc4ccc(C(=O)Nc5cc(CN6CC[C@@H](N(C)C)C6)nc(C(F)(F)F)c5)cc43)cc12 [Example 84, (R)-N-(2-((3-(dimethylamino)pyrrolidin-1-yl)methyl)-6-(trifluoromethyl)pyridin-4-yl)-1-((3-methyl-1H-pyrazolo[3,4-b]pyridin-5-yl)methyl)indoline-6-carboxamide] | < 25 nM | < 25 nM | < 25 nM
7 | O=C(Nc1cccc(C(F)(F)F)c1)c1ccc2c(c1)N(Cc1ccc3[nH]cnc3c1)CC2 [Example 60, 1-((1H-benzo[d]imidazol-5-yl)methyl)-N-(3-(trifluoromethyl)phenyl)indoline-6-carboxamide] | 50 to 80 nM | < 25 nM | 50 to 80 nM
8 | O=C(Nc1cccc(C(F)(F)F)c1)c1ccc2c(c1)N(Cc1cnc3ccnn3c1)CC2 [Example 63, 1-(pyrazolo[1,5-a]pyrimidin-6-ylmethyl)-N-(3-(trifluoromethyl)phenyl)indoline-6-carboxamide] | 50 to 80 nM | < 25 nM | < 25 nM
9 | CN1CCN(Cc2cc(C(=O)Nc3ccc4c(c3)N(C(=O)c3cnc5ccccn35)CC4)cc(C(F)(F)F)c2)CC1 [Example 16, N-(1-(imidazo[1,2-a]pyridine-3-carbonyl)indolin-6-yl)-3-((4-methylpiperazin-1-yl)methyl)-5-(trifluoromethyl)benzamide] | 25 to 50 nM | < 25 nM | < 25 nM
10 | Cc1cn(-c2cc(NC(=O)c3ccc4c(c3)N(C(=O)c3cnc5ccccn35)CC4)cc(C(F)(F)F)c2)cn1 [Example 12, 1-(imidazo[1,2-a]pyridine-3-carbonyl)-N-(3-(4-methyl-1H-imidazol-1-yl)-5-(trifluoromethyl)phenyl)indoline-6-carboxamide] | 50 to 80 nM | < 25 nM | < 25 nM
11 | COc1ccc(NC(=O)c2ccc3c(c2)N(Cc2cnc4cnccn24)CC3)cc1C(F)(F)F [Example 46, 1-(imidazo[1,2-a]pyrazin-3-ylmethyl)-N-(4-methoxy-3-(trifluoromethyl)phenyl)indoline-6-carboxamide] | 50 to 80 nM | < 25 nM | 25 to 50 nM
12 | Cc1cn(-c2cc(C(=O)Nc3ccc4c(c3)N(C(=O)c3cnc5ccccn35)CC4)cc(C(F)(F)F)c2)cn1 [Example 19, N-(1-(imidazo[1,2-a]pyridine-3-carbonyl)indolin-6-yl)-3-(4-methyl-1H-imidazol-1-yl)-5-(trifluoromethyl)benzamide] | 25 to 50 nM | < 25 nM | < 25 nM
13 | CC(C)(c1cc(NC(=O)c2ccc3c(c2)N(Cc2cnc4cnccn24)CC3)no1)C(F)(F)F [Example 45, 1-(imidazo[1,2-a]pyrazin-3-ylmethyl)-N-(5-(1,1,1-trifluoro-2-methylpropan-2-yl)isoxazol-3-yl)indoline-6-carboxamide] | 25 to 50 nM | < 25 nM | < 25 nM
14 | Cc1cn(-c2cc(NC(=O)c3ccc4c(c3)N(Cc3cnc5ccccn35)CC4C)cc(C(F)(F)F)c2)cn1 (stereo not drawn) [Example 25, 1-(imidazo[1,2-a]pyridin-3-ylmethyl)-3-methyl-N-(3-(4-methyl-1H-imidazol-1-yl)-5-(trifluoromethyl)phenyl)indoline-6-carboxamide] | 25 to 50 nM | < 25 nM | 25 to 50 nM
15 | Cc1n[nH]c2ncc(CN3CCc4ccc(C(=O)Nc5ccc(CN6CCCC6)c(C(F)(F)F)c5)cc43)cc12 [Example 70, 1-((3-methyl-1H-pyrazolo[3,4-b]pyridin-5-yl)methyl)-N-(4-(pyrrolidin-1-ylmethyl)-3-(trifluoromethyl)phenyl)indoline-6-carboxamide] | 25 to 50 nM | < 25 nM | < 25 nM
16 | Cc1cn(-c2cc(NC(=O)c3ccc4c(c3)N(Cc3ccc5[nH]ncc5c3)CC4)cc(C(F)(F)F)c2)cn1 [Example 8, 1-((1H-indazol-5-yl)methyl)-N-(3-(4-methyl-1H-imidazol-1-yl)-5-(trifluoromethyl)phenyl)indoline-6-carboxamide] | 50 to 80 nM | 25 to 50 nM | 25 to 50 nM
17 | Cc1n[nH]c2ncc(CN3CCc4ccc(C(=O)Nc5cc(CN6CCN(C)CC6)nc(C(F)(F)F)c5)cc43)cc12 [Example 81, 1-((3-methyl-1H-pyrazolo[3,4-b]pyridin-5-yl)methyl)-N-(2-((4-methylpiperazin-1-yl)methyl)-6-(trifluoromethyl)pyridin-4-yl)indoline-6-carboxamide] | < 25 nM | < 25 nM | < 25 nM
18 | O=C(Nc1cccc(OC(F)(F)F)c1)c1ccc2c(c1)N(Cc1ccc3[nH]cnc3c1)CC2 [Example 61, 1-((1H-benzo[d]imidazol-5-yl)methyl)-N-(3-(trifluoromethoxy)phenyl)indoline-6-carboxamide] | 50 to 80 nM | 25 to 50 nM | 25 to 50 nM
19 | CC1CN(Cc2cnc3[nH]ncc3c2)c2cc(C(=O)Nc3cncc(C(F)(F)F)c3)ccc21 (stereo not drawn) [Example 91, 1-((1H-pyrazolo[3,4-b]pyridin-5-yl)methyl)-3-methyl-N-(5-(trifluoromethyl)pyridin-3-yl)indoline-6-carboxamide] | < 25 nM | < 25 nM | < 25 nM
20 | CN(C)Cc1c[nH]c2ncc(CN3CCc4ccc(C(=O)Nc5cccc(C(F)(F)F)c5)cc43)cc12 [Example 90, 1-((3-((dimethylamino)methyl)-1H-pyrrolo[2,3-b]pyridin-5-yl)methyl)-N-(3-(trifluoromethyl)phenyl)indoline-6-carboxamide] | < 25 nM | < 25 nM | < 25 nM
